# “Also recorded” adds a separate entry of the source.
# Key:
# human CFTR = target: T1, human CFTR (Homo sapiens, UniProt P13569); test: Apical membrane current of CFTR in FRT cells expressing human CFTR; type: cell-based; conditions: apical membrane current, FRT cells expressing human CFTR, 20 μM forskolin, n = 5; read-out: CFTR chloride channel IC50
# T1 construct: expressed in transfected cells; host or cells: Fisher rat thyroid (FRT) cells
# From the text: […]. (C) Summary of dose-response (mean ± S.E., n = 5). […]. (F) Summary of dose−response (mean ± S.E., n = 6).
# Snapwell inserts containing ANO1(abc) or CFTR-expressing FRT cells were mounted in Ussing chambers (Physiological Instruments, San Diego, CA). The basolateral hemichamber was filled with buffer solution (in mM): 120 NaCl, 5 KCl, 1 MgCl2, 1 CaCl2, 10 D-glucose, 2.5 HEPES, and 25 NaHCO3 (pH 7.4). The apical hemichamber was filled with buffer solution (in mM): 60 NaCl, 60 Na-gluconate, 5 KCl, 1 MgCl2, 1 CaCl2, 10 D-glucose, 2.5 HEPES, and 25 NaHCO3 (pH 7.4). FRT cells were bathed for a 10 min stabilization period and gassed with 5% CO2 and 95% O2 at 37 °C. The apical membrane current was recorded with an EVC4000 Multi-Channel V/I Clamp (World Precision Instruments, Sarasota, FL, USA) and a PowerLab 4/35 (AD Instruments, Castle Hill, Australia).
# [1] = tested on: ATP-induced intracellular calcium signaling in FRT cells; test: Intracellular calcium measurement (Fluo-4) in FRT cells; type: cell-based, rat; conditions: 100 μM ATP
# Experimental: (A) Representative Fluo4 fluorescence traces from 3 independent experiments in FRT cells. […] (B,C) Representative apical membrane currents from 3–4 independent experiments in FRT cells expressing human ANO1. […] (D) Representative YFP fluorescence traces in FRT cells expressing human ANO2. […] (E) Representative Fluo4 fluorescence traces from 3 independent experiments in FRT cells. Cells were pretreated with DCPIB for 10 min followed by application of 100 μM ATP. (F) Representative apical membrane currents in FRT cells expressing human ANO1.
# FRT cells were plated on 96-well black-walled microplates and loaded with Fluo-4 NW according to the manufacturer’s protocol (Invitrogen, Carlsbad, CA, USA). […] The 96-well plates were transferred to a plate reader for fluorescence assay.
# ANO1 = target: T2, ANO1 (Homo sapiens, UniProt Q5XXA6, DEL476-501); test: YFP fluorescence quenching assay for ANO1 activity in FRT-ANO1 cells; type: cell-based; conditions: ATP 100 μM, n = 4
# T2 construct: expressed in transfected cells; host or cells: Fisher rat thyroid (FRT) cells; The YFP assay uses FRT-ANO1-YFP cells, which also carry the halide sensor
# T2 sequence (Q5XXA6 with tags, fused parts or gaps isoform Q5XXA6-5 DEL539-564): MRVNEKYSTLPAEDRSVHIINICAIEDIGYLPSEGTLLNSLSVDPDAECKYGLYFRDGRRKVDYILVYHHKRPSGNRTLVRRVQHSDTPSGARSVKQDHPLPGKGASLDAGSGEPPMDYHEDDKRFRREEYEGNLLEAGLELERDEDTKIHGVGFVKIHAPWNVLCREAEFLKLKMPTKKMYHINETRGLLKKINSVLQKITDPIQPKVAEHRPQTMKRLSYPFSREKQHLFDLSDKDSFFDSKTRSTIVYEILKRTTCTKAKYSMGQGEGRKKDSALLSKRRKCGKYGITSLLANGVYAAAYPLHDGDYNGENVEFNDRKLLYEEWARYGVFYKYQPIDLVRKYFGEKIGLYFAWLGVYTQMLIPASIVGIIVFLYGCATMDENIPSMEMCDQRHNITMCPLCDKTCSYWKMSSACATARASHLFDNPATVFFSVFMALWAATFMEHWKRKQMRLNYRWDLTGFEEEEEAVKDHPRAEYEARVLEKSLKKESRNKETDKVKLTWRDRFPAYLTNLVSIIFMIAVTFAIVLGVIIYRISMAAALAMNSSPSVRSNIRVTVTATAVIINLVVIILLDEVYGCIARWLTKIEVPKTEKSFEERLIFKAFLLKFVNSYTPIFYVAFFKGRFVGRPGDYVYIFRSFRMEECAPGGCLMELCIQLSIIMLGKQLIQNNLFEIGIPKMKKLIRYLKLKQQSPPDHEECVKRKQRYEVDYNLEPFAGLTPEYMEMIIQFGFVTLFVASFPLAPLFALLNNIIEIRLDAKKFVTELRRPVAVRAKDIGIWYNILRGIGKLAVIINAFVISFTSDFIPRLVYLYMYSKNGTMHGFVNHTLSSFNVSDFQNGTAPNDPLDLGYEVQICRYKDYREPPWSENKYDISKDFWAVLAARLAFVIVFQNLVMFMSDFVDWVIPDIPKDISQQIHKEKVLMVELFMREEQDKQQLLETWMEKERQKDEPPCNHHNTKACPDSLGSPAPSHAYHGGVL
# Experimental: Figure 2 Inhibitory effects of VI-101, VI-201 and VI-301 on VRAC and ANO1. (A–C) Representative YFP fluorescence traces for VRAC activity. LN215 cells were treated with the indicated concentrations of VI-101, VI-201 and VI-301 with hypotonic solution for 5 min. (D) Dose-response curve of VRAC inhibition (mean ± S.E., n = 4). (E–G) Representative YFP fluorescence traces for ANO1 activity. […]. (H) Dose-response curve of ANO1 inhibition (mean ± S.E., n = 4).
# Human ANO1(abc) expressing Fisher rat thyroid (FRT) cells, ANO2 expressing FRT cells, and human CFTR expressing FRT cells were cultured as described in a previous study. LN215 cells were stably transfected with the halide sensor YFP-F46L/H148Q/I152 and NIH-3T3 cells cultured in DMEM were supplemented with 10% FBS, 2 mM L-glutamine, 100 units/mL penicillin, and 100 μg/mL streptomycin. HEK293T cells were stably transfected with the human Kv11.1 (hERG) and cultured in DMEM supplemented with 10% FBS, 2 mM L-glutamine, 100 units/mL penicillin, and 100 μg/mL streptomycin. PC3, HT29, and HeLa cells were stably transfected with the halide sensor YFP-F46L/H148Q/I152 and cultured in RPMI 1640 supplemented with 10% FBS, 2 mM L-glutamine, 100 units/mL penicillin, and 100 μg/mL streptomycin. […]
# T1 sequence (P13569 whole entry): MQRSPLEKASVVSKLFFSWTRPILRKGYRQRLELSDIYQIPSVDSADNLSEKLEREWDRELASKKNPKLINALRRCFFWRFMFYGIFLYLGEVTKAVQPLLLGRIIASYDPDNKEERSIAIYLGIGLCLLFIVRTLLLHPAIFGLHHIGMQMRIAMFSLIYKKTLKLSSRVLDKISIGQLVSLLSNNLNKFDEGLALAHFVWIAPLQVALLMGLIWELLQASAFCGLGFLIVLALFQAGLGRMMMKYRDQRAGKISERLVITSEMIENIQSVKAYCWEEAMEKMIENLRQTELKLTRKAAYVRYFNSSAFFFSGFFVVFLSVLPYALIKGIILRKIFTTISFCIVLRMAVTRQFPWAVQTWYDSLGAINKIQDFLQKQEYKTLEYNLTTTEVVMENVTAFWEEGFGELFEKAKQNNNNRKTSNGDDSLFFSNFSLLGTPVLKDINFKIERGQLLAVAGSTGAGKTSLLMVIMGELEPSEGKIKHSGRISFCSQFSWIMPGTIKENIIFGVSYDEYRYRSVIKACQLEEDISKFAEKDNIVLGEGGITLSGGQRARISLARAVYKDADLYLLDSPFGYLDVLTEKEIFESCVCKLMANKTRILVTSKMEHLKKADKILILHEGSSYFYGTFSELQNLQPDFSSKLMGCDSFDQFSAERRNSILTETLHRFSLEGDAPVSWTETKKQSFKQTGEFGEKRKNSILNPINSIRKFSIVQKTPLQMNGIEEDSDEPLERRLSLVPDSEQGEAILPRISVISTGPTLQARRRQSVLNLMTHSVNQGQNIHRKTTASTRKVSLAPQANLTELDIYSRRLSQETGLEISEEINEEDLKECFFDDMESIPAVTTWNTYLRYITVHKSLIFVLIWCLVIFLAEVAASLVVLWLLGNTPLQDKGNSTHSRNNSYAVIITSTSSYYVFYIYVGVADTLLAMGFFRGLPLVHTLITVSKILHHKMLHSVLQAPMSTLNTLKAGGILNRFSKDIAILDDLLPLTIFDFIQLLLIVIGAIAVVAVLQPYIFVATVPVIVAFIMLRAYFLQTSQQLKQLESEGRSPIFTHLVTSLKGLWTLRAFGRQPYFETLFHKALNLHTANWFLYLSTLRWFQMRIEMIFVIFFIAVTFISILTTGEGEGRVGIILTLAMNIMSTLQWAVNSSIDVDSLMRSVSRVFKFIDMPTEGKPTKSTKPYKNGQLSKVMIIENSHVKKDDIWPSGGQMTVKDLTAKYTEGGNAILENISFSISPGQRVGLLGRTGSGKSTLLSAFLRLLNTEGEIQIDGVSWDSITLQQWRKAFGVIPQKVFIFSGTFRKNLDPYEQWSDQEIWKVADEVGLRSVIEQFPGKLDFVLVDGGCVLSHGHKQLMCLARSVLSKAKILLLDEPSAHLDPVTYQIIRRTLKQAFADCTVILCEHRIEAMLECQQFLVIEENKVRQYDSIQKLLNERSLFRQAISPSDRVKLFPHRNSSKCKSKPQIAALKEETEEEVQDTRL
compound,measurement,setting,value
"COc1cccc(C(c2c(O)c3ccccc3oc2=O)c2c(O)c3ccccc3oc2=O)c1O [VI-116, 3,3′-((2-hydroxy-3-methoxyphenyl)methylene)bis(4-hydroxy-2H-chromen-2-one)]",IC50,human CFTR,12.4 µM
same,effect on intracellular calcium signaling,[1]; 30 μM,weak inhibitory effect
same,effect on ATP-induced increase in intracellular calcium levels,[1]; up to 10 μM,no effect; also recorded: did not affect
same,IC50,ANO1,39.1 µM
